Data published in paper PMC9598925, “Synthetic Amphipathic β-Sheet Temporin-Derived Peptide with Dual Antibacterial and Anti-Inflammatory Activities” (Antibiotics, 2022).
In brackets after ≈: the same amount, converted by molar mass. Non-standard residues stand in square brackets, D forms with d. Residues, ends and D or L forms follow the SMILES beside them. Nle = CCCC[C@H](N)C(=O)O

Key:
A. baumannii ATCC 19606 = format: cell-based
Method: (§1) All Gram-negative and Gram-positive strains were obtained from the American Type Culture Collection (Rockville, MD, USA). MICs were determined as described previously. 50 μL of bacterial culture properly diluted in Mueller–Hinton (MH) broth were added to each well of a 96-well plate containing 50 μL of MH with serially two-fold diluted peptide from 100 μM, to reach a final cell density of 1 × 10^6 CFU/mL. Each MIC value indicates the lowest concentration of compound that causes a total inhibition of bacterial growth after 16–18 h of incubation at 37 °C.

B. megaterium Bm11 = format: cell-based
Method: as §1

E. coli ATCC 25922 = format: cell-based
Method: as §1

[1] = system: K. pneumoniae ATCC BAA-1705; format: cell-based
Method: as §1

P. aeruginosa ATCC 27853 = format: cell-based
Method: as §1

S. aureus ATCC 25923 = format: cell-based
Method: as §1

[2] = system: S. epidermidis ATCC 12228; format: cell-based
Method: as §1

[3] = Peptide aggregation in aqueous solution, Nile Red; format: physicochemical; settings: Nile Red 500 nM, 1–200 μM peptide, 1 h equilibration at room temperature, fluorescence, triplicate, Boltzmann fit
Method: Nile Red (NR) was used as fluorescent probe to monitor the aggregation in solution [51]. NR is not very soluble in water and has a large preference to move into hydrophobic environment as aggregates, producing a blue shift and hyperchromic effect. The peptide stock (400 μM) was prepared in 1,1,1,3,3,3-hexafluoro-2-propanol (HFIP) as solvent and different aliquots were taken to prepare each peptide solution at different concentrations (1, 5, 10, 15, 20, 30, 50, 100, and 200 μM). Then, HFIP was removed under nitrogen stream, 1 mL of water was added, and the solution was sonicated for 15 min and freeze-dried. Finally, the peptide powders were dissolved with a solution of 500 nM of NR in water and equilibrated for 1 h at room temperature. Emission spectra for each solution were measured between 570 and 700 nm by a Cary Eclipse Varian spectrometer (San Diego, CA, USA), setting a slit width of 5 nm and an excitation wavelength of 550 nm and a 10 nm slit width. The measurements were performed in triplicate. The data were analyzed by plotting the maximum emission fluorescence corresponding wavelength (y) as a function of peptide concentration (x) and fitting with the sigmoidal Boltzmann equation as described previously.

[4] = Peptide aggregation in LUVs, Thioflavin T; format: physicochemical; settings: LUVs DOPG/CL (58/42), 0.1 mM lipid
Method: Regarding peptide aggregation in LUVs, was monitored using the Thioflavin T as fluorescent probe. LUVs were prepared using the extrusion method. Firstly, the lipid films (final concentration of 0.1 mM), made of DOPG, CL (58/42 ratio in moles) and DOPG/DOPE/CL (63/23/12 ratio in moles), were prepared by dissolving an appropriate amount of lipids in chloroform. The solvent was removed under nitrogen stream, water was added, and the film lipids were freeze-dried. Then, the lipid films were hydrated with 100 mM NaCl, 10 mM Tris-HCl, 25 μM Tht buffer, pH 7.4, and vortexed for 1 h. Then, the lipid suspension was freeze-thawed 6 times and extruded 10 times through polycarbonate membranes with […] diameter pores to obtain LUVs. The aggregation of [Nle^1, DLeu^9, DLys^10]TL was monitored titrating LUVs with different peptide concentrations of 5, 10, 15, 20, 30, 50 μM. Spectra were recorded before and after the addition of peptide using a Varian Cary Eclipse fluorescence spectrometer, exciting the sample at 450 nm (slit width, 10 nm) and recording fluorescence emission at 482 nm (slit width, 5 nm). Aggregation was quantified according to this equation: %A= […] × 100, where Ff indicates the value of fluorescence after peptide addition, F0 the fluorescence in the absence of peptide and Fmax is the fluorescence maximum obtained immediately after peptide addition.

ANTS/DPX leakage assay = settings: 100% = 0.1% Triton
Method: The ability of the peptide [Nle^1, DLeu^9, DLys^10]TL to induce LUVs leakage was evaluated using ANTS/DPX assay. After the preparation of lipid films (0.1 mM) as described above, fluorophores ANTS (12.5 mM) and DPX (45 mM) were dissolved in water and added to lipid films. The mixture was frozen and lyophilized overnight. Then, the lipid films with ANTS and DPX were hydrated with PBS 1× buffer, vortexed for 1 h and then treated to obtain LUVs. The nonencapsulated ANTS and DPX were removed by gel filtration using a Sephadex G-50 column (1.5 cm × 10 cm) at room temperature. The leakage experiment was performed titrating LUVs with different peptide concentrations of 5, 10, 15, 20, 30, 50 μM, and each sample was excited at 385 nm (slit width, 5 nm) and the fluorescence emission was recorded at 512 nm (slit width, 5 nm). The liposomes leakage promoted by peptide was correlated with an increase of ANTS fluorescence at 512 nm. In this experiment, the control was represented by the complete release of ANTS after the treatment of LUVs with 0.1% Triton. The liposomes leakage was calculated as % Leakage = (Fi − F0)/(Ft − F0), where F0 is the fluorescence of intact LUVs before the addition of peptide, and Fi and Ft is the intensities of the fluorescence achieved after peptide and Triton-X treatment, respectively.

[5] = system: IL-6 production in LPS-stimulated J774A.1 cells; test: Anti-inflammatory activity, IL-6 ELISA in LPS-stimulated macrophages; format: cell-based, murine; settings: LPS 10 µg∙mL^−1, peptide 3 μM, 24 h, ELISA of supernatant, three independent experiments
Method: Mouse macrophage cell line J774A.1 was cultured as previously described. Cells were seeded in Petri culture dishes (100 mm × 20 mm) at a density of 5 × 10^5 cells per dish and allowed to grow for 24 h. The medium was then replaced, and cells were treated with LPS (10 μg∙mL^−1) in presence or absence of [Nle^1, DLeu^9, DLys^10]TL at the concentration of 3 µM (non-cytotoxic concentration from MTT assay). Following incubation of 24 h, cells were collected with a cell scraper, and after centrifugation at 14,000× g for 10 min at 4 °C, the supernatant was collected and assayed for IL-6 enzyme-linked immunosorbent assay (ELISA) analysis.

in vitro = settings: male, human, 90% human serum (from human male AB plasma)
Method: The peptide was mixed with 90% of human serum at a final concentration of 200 μM and incubated at 37 °C [27]. Aliquots of the mixture were taken at time intervals of 15, 45, 75, 90 and 120 min. The serum protein was removed by the precipitation with acetonitrile (MeCN) and centrifuged at 13,000 rpm for 15 min. Then, the supernatant was taken and analyzed by ultra-high performance liquid chromatography (UHPLC) using a Phenomenex Kinetex column (4.6 mm × 150 mm, 5 μm, C18) and a linear gradient from 10 to 90% of MeCN (0.1% TFA) in water (0.1% TFA) over 20 min. The percentage of the intact peptide was calculated by integrating the peak area of the UHPLC chromatogram.

`CCCC[C@H](N)C(=O)N[C@@H](Cc1ccccc1)C(=O)N[C@H](C(=O)N1CCC[C@H]1C(=O)N[C@@H](Cc1c[nH]c2ccccc12)C(=O)N[C@@H](Cc1ccccc1)C(=O)N[C@@H](CO)C(=O)N[C@@H](CCCCN)C(=O)N[C@@H](Cc1ccccc1)C(=O)N[C@H](CC(C)C)C(=O)N[C@H](CCCCN)C(=O)N[C@@H](CCCNC(=N)N)C(=O)N[C@H](C(=O)N[C@@H](CC(C)C)C(N)=O)[C@@H](C)CC)C(C)C` [[Nle^1, DLeu^9, DLys^10]TL] (H-[Nle]FVPWFSKF[dL][dK]RIL-NH2) gave an MIC (A. baumannii ATCC 19606) of 3.12 µM (≈ 5.6 µg/mL), an MIC (B. megaterium Bm11) of 0.78 µM (≈ 1.4 µg/mL) and an MIC (E. coli ATCC 25922) of 6.25 µM (≈ 11.2 µg/mL). For the same molecule, the MIC [1] was 12.5 µM (≈ 22.4 µg/mL), the MIC (P. aeruginosa ATCC 27853) was 12.5 µM (≈ 22.4 µg/mL) and the MIC (S. aureus ATCC 25923) was 3.12 µM (≈ 5.6 µg/mL). For the same molecule, the MIC [2] was 3.12 µM (≈ 5.6 µg/mL), the “critical aggregation concentration (CAC)” value [3] was 38.9 µM and the “aggregation (ThT)” value ([4]; 5 μM peptide, pH 7.4, 25 μM ThT fluorescence) was ~ 22%. For the same molecule, the “aggregation (ThT)” value ([4]; 30 μM peptide, pH 7.4, ThT fluorescence) was “completely aggregated”, the LUVs leakage (ANTS/DPX leakage assay; 10 μM peptide, LUVs DOPG/CL) was ~ 60% and the LUVs leakage (ANTS/DPX leakage assay; highest concentration of 50 μM, LUVs DOPG/DOPE/CL) was ~ 20%. The IL-6 production [5] was “significant modulation of IL-6 production”, the remaining at 0.75 h, 200 μM (in vitro) was about 75% and the remaining at 2 h, 200 μM (in vitro) was about 50%.
